Measurements: patent publication US10858365B2, “Triazolo-pyrimidine compounds and uses thereof” (Dizal (Jiangsu) Pharmaceutical Co., Ltd., priority 2018, dated 2020)

Key:
hA2a [1] = target: T1, hA2a (Homo sapiens (Human), UniProt P29274); assay: Radioligand binding to hA2a membrane ([3H]-CGS21680); settings: [3H]-CGS21680, 90 min at 25° C., read-out: Binding Affinity (IC50 nM) hA2a
Description: (§1) Binding affinity and specificities of the compounds against different subtype of human adenosine receptors (hA1, hA2A, hA2B and hA3) were characterized with cell membrane chromatography binding analysis.
(§2) The compounds at different concentrations were incubate with hA2a membrane (from PerkinElmer) and [^3H]-CGS21680 for 90 min at 25° C., meanwhile 100 μL 0.5% PEI solution was added into […]-96 GF/B filter plate for 60 min at 4° C., then […]-96 GF/B filter plate was washed twice with 50 ml wash buffer, the membrane mix was transferred into […]-96 GF/B filter plate, and the filter plate was washed 4 times before incubated at 55° C. for 10 min. At last, […] ULTIMA GOLD was added into each well, and CPM was read by TopCount.
(§3) The empty boxes in the tables below indicate data not available.

hA1 [2] = target: T2, hA1 (Homo sapiens (Human), UniProt P30542); assay: FLIPR inhibition assay in hADORA1/CHO (hA1 expressing) cells; format: cell-based; settings: hADORA1/CHO cells, FLIPR calcium, adenosine stimulation; read-out: cAMP & FLIPR IC50 (nM) hA1
T2 sequence (P30542 whole entry): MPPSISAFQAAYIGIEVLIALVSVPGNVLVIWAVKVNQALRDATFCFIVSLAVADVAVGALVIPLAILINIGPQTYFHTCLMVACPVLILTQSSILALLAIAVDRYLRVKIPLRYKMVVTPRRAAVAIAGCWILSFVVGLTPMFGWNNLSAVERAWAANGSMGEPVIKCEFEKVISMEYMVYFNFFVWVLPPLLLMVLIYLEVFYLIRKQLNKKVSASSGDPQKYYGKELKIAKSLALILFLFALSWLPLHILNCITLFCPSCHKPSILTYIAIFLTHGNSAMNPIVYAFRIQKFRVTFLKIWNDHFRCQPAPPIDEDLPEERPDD
Procedure, shortened: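 CHO cells expressing human A1 were plated at 1×10^4 cells/well the day before, then loaded with FLIPR Calcium 5 dye for 60 min at 37 °C, 5% CO2. Compounds were added at several concentrations for 400 s before stimulation with […] adenosine. The calcium signal was recorded by FLIPR.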

hA1 [3] = target: T2, hA1; assay: Radioligand binding to hA1 membrane ([3H]-DPCPX); settings: 50 min at 25° C., read-out: Binding Affinity (IC50 nM) hA1
Description: as §1
as §2, with “hA1” for “hA2a”, “[^3H]-8-Cyclopentyl-1,3-dipropylxanthine (DPCPX)” for “[^3H]-CGS21680”, “50” for “90”
as §3

hA2b = hA2b (Homo sapiens (Human), UniProt P29275); assay: cAMP inhibition assay in hA2b/CHO cells; format: cell-based; settings: adenosine stimulation, read-out: cAMP & FLIPR IC50 (nM) hA2b
Chain of hA2b (P29275 whole entry): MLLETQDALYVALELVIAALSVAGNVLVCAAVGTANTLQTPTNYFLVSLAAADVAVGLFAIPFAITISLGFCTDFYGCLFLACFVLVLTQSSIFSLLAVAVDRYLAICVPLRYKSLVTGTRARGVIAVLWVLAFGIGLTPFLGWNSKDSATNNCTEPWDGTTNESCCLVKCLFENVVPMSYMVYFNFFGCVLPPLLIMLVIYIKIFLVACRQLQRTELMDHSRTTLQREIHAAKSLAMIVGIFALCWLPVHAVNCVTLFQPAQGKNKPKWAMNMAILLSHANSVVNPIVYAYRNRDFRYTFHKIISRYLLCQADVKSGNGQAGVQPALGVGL
Description: (§4) hA2a/CHO, hA2b/CHO and mA2a/CHO (Genscript) were plated at 5×10^3 cells/well into 384-well polystyrene plates at the day of experiment. Compounds were pre-incubated with cells for 30 min at 37° C., 5% CO2. Then […] adenosine was added to the cells and incubated for 30 min at 37° C., 5% CO2. Detection reagent (CISBIO) was added and the plates were incubated for 60 min at room temperature. The signal was captured by Envision.

hA2a [4] = target: T1, hA2a; assay: cAMP inhibition assay in hA2a/CHO cells; format: cell-based; settings: adenosine stimulation, read-out: cAMP & FLIPR IC50 (nM) hA2a
Procedure, shortened: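 CHO cells expressing human A2a, human A2b or mouse A2a, 5×10^3 cells/well, pre-incubated with compound 30 min at 37 °C, then stimulated with […] adenosine 30 min at 37 °C. cAMP read after 60 min room-temperature incubation with detection reagent.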

mA2a = mA2a (Mus musculus (Mouse), UniProt Q60613); assay: cAMP inhibition assay in mA2a/CHO cells; format: cell-based; settings: adenosine stimulation, read-out: cAMP & FLIPR IC50 (nM) mA2a
Chain of mA2a (Q60613 whole entry): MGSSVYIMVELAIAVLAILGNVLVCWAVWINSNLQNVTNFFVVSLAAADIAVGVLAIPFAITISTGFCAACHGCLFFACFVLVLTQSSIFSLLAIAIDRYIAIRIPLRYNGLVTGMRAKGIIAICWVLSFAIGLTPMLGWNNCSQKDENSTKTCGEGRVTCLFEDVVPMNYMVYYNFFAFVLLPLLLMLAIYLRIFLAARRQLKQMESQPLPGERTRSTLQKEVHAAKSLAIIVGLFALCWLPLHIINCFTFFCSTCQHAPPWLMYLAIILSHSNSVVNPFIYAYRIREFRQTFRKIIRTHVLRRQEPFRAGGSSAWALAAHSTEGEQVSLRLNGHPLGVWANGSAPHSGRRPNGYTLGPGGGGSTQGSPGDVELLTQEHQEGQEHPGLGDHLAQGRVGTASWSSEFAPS
Description: as §4

hA3 = hA3 (Homo sapiens (Human), UniProt P0DMS8); assay: cAMP & FLIPR inhibition, hA3 over-expressing cell line; format: cell-based
Chain of hA3 (P0DMS8 whole entry): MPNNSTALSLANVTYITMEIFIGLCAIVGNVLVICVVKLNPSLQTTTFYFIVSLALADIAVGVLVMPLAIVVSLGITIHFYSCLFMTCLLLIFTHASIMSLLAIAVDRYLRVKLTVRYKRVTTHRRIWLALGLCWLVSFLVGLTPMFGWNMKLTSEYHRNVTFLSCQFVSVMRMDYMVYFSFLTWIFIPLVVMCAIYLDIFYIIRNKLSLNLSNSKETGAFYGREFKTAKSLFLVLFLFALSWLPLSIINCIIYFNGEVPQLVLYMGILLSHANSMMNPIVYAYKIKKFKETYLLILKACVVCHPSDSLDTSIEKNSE
Excerpt: FLIPR™ and cAMP inhibition activities of exemplary compounds in different adenosine receptor over-expressing cell lines are shown in Table 4 below.

T1 sequence (P29274 whole entry): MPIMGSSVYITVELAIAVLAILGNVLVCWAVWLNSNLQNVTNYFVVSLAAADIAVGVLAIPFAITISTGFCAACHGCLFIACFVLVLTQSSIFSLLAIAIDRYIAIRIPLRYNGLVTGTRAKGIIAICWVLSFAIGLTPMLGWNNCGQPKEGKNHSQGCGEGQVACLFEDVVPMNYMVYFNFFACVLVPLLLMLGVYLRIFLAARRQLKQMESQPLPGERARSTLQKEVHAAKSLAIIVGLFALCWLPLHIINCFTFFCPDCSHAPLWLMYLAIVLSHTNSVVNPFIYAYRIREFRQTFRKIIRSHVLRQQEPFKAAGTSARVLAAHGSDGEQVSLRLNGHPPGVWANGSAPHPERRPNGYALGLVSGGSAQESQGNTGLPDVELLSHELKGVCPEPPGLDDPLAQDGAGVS

Compound | IC50 (hA2a [1]) [nM] | IC50 (hA1 [2]) [nM] | IC50 (hA1 [3]) [nM] | IC50 (hA2b) [nM] | IC50 (hA2a [4]) [nM] | IC50 (mA2a) [nM] | IC50 (hA3) [nM]
Nc1nc(-n2nccn2)c(-c2ccc3nccn3c2)c2nc(Cc3ncccc3F)nn12 [Example 94, 2-[(3-fluoropyridin-2-yl)methyl]-8-[imidazo[1,2-a]pyridin-6-yl]-7-(2H-1,2,3-triazol-2-yl)-[1,2,4]triazolo[1,5-c]pyrimidin-5-amine] | 3.5 | 41 | 52 | 94 | 7.7 | 20 | –
Cc1cc(-c2c(-c3ccc(F)cc3)nc(N)n3nc(Cc4cccc(C#N)n4)nc23)ccn1 [Example 19, 6-((5-amino-7-(4-fluorophenyl)-8-(2-methylpyridin-4-yl)-[1,2,4]triazolo[1,5-f]pyrimidin-2-yl)methyl)picolinonitrile] | – | 23 | – | 303 | 102 | 88 | > 10000
Nc1nc(-c2ccc(F)cc2)c(-c2ccnc(Cl)c2)c2nc(Cc3ncccc3F)nn12 [Example 3, 8-(2-chloropyridin-4-yl)-7-(4-fluorophenyl)-2-((3-fluoropyridin-2-yl)methyl)-[1,2,4]triazolo[1,5-c]pyrmidin-5-amine] | – | 42 | – | 65 | 56 | 70 | > 10000
Nc1nc(-c2ccc(F)cc2)c(-c2ccc3nccn3c2)c2nc(Cc3ncccc3F)nn12 [Example 32, 7-(4-fluorophenyl)-2-((3-fluoropyridin-2-yl)methyl)-8-(imidazo[1,2-a]pyridin-6-yl)-[1,2,4]triazolo [1,5-c]pyrimidin-5-amine] | 5.5 | 28 | 3.4 | 19 | 0.9 | 5.4 | –
Cc1cc(-c2c(-c3ccc(F)cc3)nc(N)n3nc(Cc4cscn4)nc23)ccn1 [Example 7, 7-(4-fluorophenyl)-8-(2-methylpyridin-4-yl)-2-[(1,3-thiazol-4-yl)methyl]-[1,2,4]triazolo[1,5-c]pyrimidin-5-amine] | – | 23 | – | 1600 | 102 | 209 | > 10000
Nc1nc(-c2ncco2)c(-c2ccnc(OC(F)F)c2)c2nc(Cc3c(F)cccc3F)nn12 [Example 85, 2-(2,6-difluorobenzyl)-8-(2-(difluoromethoxy)pyridin-4-yl)-7-(oxazol-2-yl)-[1,2,4]triazolo[1,5-c] pyrimidin-5-amine] | 5.5 | 27 | 5.4 | 48 | 15 | 11 | –
Cc1c(-c2c(-c3ccc(F)cc3)nc(N)n3nc(Cc4ncccc4F)nc23)ccc(=O)n1C [Example 66, 5-(5-amino-7-(4-fluorophenyl)-2-((3-fluoropyridin-2-yl)methyl)-[1,2,4]triazolo[1,5-c]pyrimidin-8-yl)-1,6-dimethylpyridin-2(1H)-one] | 7.2 | 69 | 46 | 109 | 31 | 346 | –
Cn1cc(-c2c(-c3ccc(C(F)F)cc3)nc(N)n3nc(Cc4ncccc4F)nc23)ccc1=O [Example 41, 5-(5-amino-7-(4-(difluoromethyl)phenyl)-2-((3-fluoropyridin-2-yl)methyl)-[1,2,4]triazolo[1,5-c]pyrimidin-8-yl)-1-methylpyridin-2(1H)-one] | 3.4 | 17 | 2.2 | 259 | 70 | 189 | –
Nc1cccc(Cc2nc3c(-c4ccc5nccn5c4)c(-c4ccc(F)cc4)nc(N)n3n2)n1 [Example 37, 2-((6-aminopyridin-2-yl)methyl)-7-(4-fluorophenyl)-8-(imidazo[1,2-a]pyridin-6-yl)-[1,2,4]triazolo[1,5-c]pyrimidin-5-amine] | 6.3 | 12 | 4 | 12 | 1.8 | 7.3 | –
Cn1cc(-c2c(-n3nccn3)nc(N)n3nc(Cc4c(F)cccc4F)nc23)ccc1=O [Example 25, 5-[5-amino-2-[(2,6-difluorophenyl)methyl]-7-(2H-1,2,3-triazol-2-yl)-[1,2,4]triazolo[1,5-c]pyrimidin-8-yl]-1-methyl-1,2-dihydropyridin-2-one] | 1.4 | 21 | 7.9 | 582 | 20 | 30 | –
COc1cccc(-c2nc(N)n3nc(Cc4ncccc4F)nc3c2-c2ccc(=O)n(C)c2)c1 [Example 77, 5-(5-amino-2-((3-fluoropyridin-2-yl)methyl)-7-(3-methoxyphenyl)-[1,2,4]triazolo[1,5-c]pyrimidin-8-yl)-1-methylpyridin-2(1H)-one] | 3.6 | 13 | 1.4 | 51 | 6.7 | 17 | –
Cn1cc(-c2c(-c3ncco3)nc(N)n3nc(Cc4c(F)cccc4F)nc23)ccc1=O [Example 22, 5-(5-amino-2-(2,6-difluorobenzyl)-7-(oxazol-2-yl)-[1,2,4]triazolo[1,5-c]pyrimidin-8-yl)-1-methylpyridin-2(1H)-one] | 12 | 25 | 6.8 | 168 | 8.2 | 12 | –
COc1ccc(-c2nc(N)n3nc(Cc4ncccc4F)nc3c2-c2ccc(=O)n(C)c2)cc1 [Example 61, 5-(5-amino-2-((3-fluoropyridin-2-yl)methyl)-7-(4-methoxyphenyl)-[1,2,4]triazolo[1,5-c]pyrimidin-8-yl)-1-methylpyridin-2(1H)-one] | 4.2 | 25 | 1.7 | 122 | 28 | 42 | –
Nc1nc(-c2ncco2)c(-c2ccnc(OC(F)F)c2)c2nc(Cc3ncccc3F)nn12 [Example 86, 8-(2-(difluoromethoxy)pyridin-4-yl)-2-((3-fluoropyridin-2-yl)methyl)-7-(oxazol-2-yl)-[1,2,4]triaz olo[1,5-c]pyrimidin-5-amine] | 8.3 | 59 | 21 | 83 | 71 | 48 | –
Nc1nc(-c2ncco2)c(-c2ccc3nccn3c2)c2nc(Cc3ncccc3F)nn12 [Example 31, 2-((3-fluoropyridin-2-yl)methyl)-8-(imidazo[1,2-a]pyridin-6-yl)-7-(oxazol-2-yl)-[1,2,4]triazolo[1,5-c]pyrimidin-5-amine] | 3 | 188 | 137 | 80 | 14 | 51 | –
Cn1cc(-c2c(-c3cccc(Cl)c3)nc(N)n3nc(Cc4ncccc4F)nc23)ccc1=O [Example 70, 5-(5-amino-7-(3-chlorophenyl)-2-((3-fluoropyridin-2-yl)methyl)-[1,2,4]triazolo[1,5-c]pyrimidin-8-yl)-l-methylpyridin-2(lH)-one] | 4.1 | 14 | 0.8 | 68 | 5.5 | 13 | –
Cn1cc(-c2c(-c3ccc(C(F)(F)F)cc3)nc(N)n3nc(Cc4ncccc4F)nc23)ccc1=O [Example 62, 5-(5-amino-2-((3-fluoropyridin-2-yl)methyl)-7-(4-(trifluoromethyl)phenyl)-[l,2,4]triazolo[l,5-c]pyrimidin-8-yl)-l-methylpyridin-2(1H)-one] | 5.2 | 27 | 5.1 | 602 | 184 | 318 | –
